Assay results published in patent US20260014125A1, “BICYCLIC-TYPE MAT2A INHIBITOR AND USE THEREOF” (HAIHE BIOPHARMA CO., LTD., priority 2022, published 2026).

Experiments:
MAT2A = MAT2A (Homo sapiens (Human), UniProt P31153); test: Biochemical test: inhibition of MAT2A enzyme activity (phosphate detection, OD620); conditions: MAT2A his-tag; 150 minutes enzymatic reaction
Excerpt: Experimental principle: MAT2A can catalyze the conversion of L-methionine and ATP into SAM, inorganic phosphate, and inorganic diphosphate. By adding a chromogenic reagent to the enzymatic reaction system, the content of inorganic phosphates in a sample can be quantitatively detected, thereby characterizing the enzymatic activity of MAT2A.
Experimental material: Tris (Life Science #0497); BSA (Sigma #); MAT2A his-tag (BPS #71401-1); 384 well plate (Corning #3765); L-methionine (Admas #1100469); ATP (Sigma #A7699); MgCl2 (Sigma #M8266); KCl (Sigma #7447-40-7); Brij35 (Sigma #B4184); EDTA (Sigma #E1644)
1. 1×Assaybuffer (buffer composition: Tris, KCl, MgCl2, BSA, Brij35, and EDTA; the solvent was ultrapure water) was prepared. MAT2A his-tag enzyme solution (containing 1.3 μL of MAT2A enzyme and 998.7 μL of 1×Assaybuffer per 1000 μL) and substrate mixed solution (containing 5 μL of ATP, 1.3 μL of L-methionine, and 993.7 μL of 1×Assaybuffer per 1000 μL) were prepared using 1×AssayBuffer.
2. Preparation of compound concentration gradient: The test compound was tested with a starting concentration of 10 μM, and 10 equimolar concentrations were set according to a 3-fold dilution. Specifically, firstly, the compound was diluted into 10 different concentrations of series solutions in a 384 well plate (with final detection concentrations of 10, 3.33, 1.11, 0.37, 0.123, 0.041, 0.0137, 0.0046, 0.0015, and 0.0005 μM), and then 250 nL of the above series solutions was transferred to the 384 well reaction plate using an ultrasonic pipetting system Echo550 for later use. 250 nL of 100% DMSO was added into a negative control well and a positive control well, respectively. Double well test.
3. 15 μL of MAT2A his-tag enzyme solution was added into both the compound well and the positive control well; and 15 μL of 1×Assaybuffer was added into the negative control well.
4. The 384 well plate reaction plate was centrifuged at 1000 rpm for 60 seconds, shaken, mixed well, and incubated for 15 minutes. 10 μL of substrate mixed solution was added into each experimental well of the 384 well reaction plate to initiate the reaction.
5. The 384 well reaction plate was centrifuged at 1000 rpm for 60 seconds, shaken, mixed well, and incubated for 150 minutes.
6. 50 μL of enzyme reaction termination solution Biomol was added into all experimental wells of the 384 well reaction plate to terminate the reaction, centrifuged at 1000 rpm for 60 seconds, and incubated for 15 minutes. OD620 was read and data was processed.
Data analysis: the inhibition rate (%) of the compound was calculated and fitted to obtain the IC50 of the tested compound. Calculation method for compound inhibition rate: Compound inhibition rate (%)=(OD620_max−OD620_stample)/(OD620_max−OD620_min)×100, wherein OD620_stample was the absorbance value of the sample well; OD620 min was the absorbance value of the positive control well, indicating the reading of the wells without enzyme activity; and OD620_max was the absorbance value of the negative control well, indicating the reading of the well without compound inhibition.

KP-4 cells = test: Human pancreatic cancer KP-4 cell activity inhibition test (CellTiter-Glo); type: cell-based; conditions: 5 days
Experimental: Experimental principle: after co-incubating the MAT2A inhibitor to be tested with KP-4 cells for a period of time, a cell viability measurement method based on ATP content is used to characterize the effect of the tested compound on cell viability.
Experimental material: KP-4 cells (JCRB #JCRB0182); IMDM (Gibco 912440061); fetal bovine serum (EXCELL #FND500); penicillin-streptomycin (Gibco #15140-122); 0.25% Typsin-EDTA (Gibco #252(101-072); DMSO (Sigma #D2650); 96 well plate (Corning #3610); CellTiter-Glo (Promega #G7571)
1. KP-4 cells were cultured in IMDM culture medium containing 10% e fetal bovine serum and 1% penicillin-streptomycin at 37° C. and 5% CO2 in a cell culture incubator. Only cells in logarithmic growth phase were used for subsequent experiments.
2. The cells in logarithmic growth phase were inoculated into a 96 well plate, with a seeding quantity of 500 cells per well, and incubated overnight in a cell culture incubator at 37′C and 5% CO2.
3. The compound was dissolved with DMSO, diluted with culture medium to 10 different concentrations (approximately […]), 3333.3, 1111.1, 370, 123, 41.2, 13.7, 4.6, 1.5, and 0.5 nM) before adding it to the cell plate, and cultured at 37° C. and 5% CO2 for 5 days.
4. CellTiter-Glo reagent was added, and an enzyme-linked immunosorbent assay reader was used to detect cell viability.
Data analysis: the inhibition rate (%) of the compound was calculated and fitted to obtain the IC50 of the tested compound. Calculation method for compound inhibition rate: Compound inhibition rate (%)=(Signal_max−Signal_sample)/(Signal_max−Signal_min)×100, wherein Signal_sample was the sample well reading, indicating the cell activity of the compound inhibition well; Signal_min was the positive control well reading, indicating the background activity without cells; and Signal_max was the negative control well reading, indicating the cell activity of the well without compound inhibition.

Sequence of MAT2A (P31153 whole entry): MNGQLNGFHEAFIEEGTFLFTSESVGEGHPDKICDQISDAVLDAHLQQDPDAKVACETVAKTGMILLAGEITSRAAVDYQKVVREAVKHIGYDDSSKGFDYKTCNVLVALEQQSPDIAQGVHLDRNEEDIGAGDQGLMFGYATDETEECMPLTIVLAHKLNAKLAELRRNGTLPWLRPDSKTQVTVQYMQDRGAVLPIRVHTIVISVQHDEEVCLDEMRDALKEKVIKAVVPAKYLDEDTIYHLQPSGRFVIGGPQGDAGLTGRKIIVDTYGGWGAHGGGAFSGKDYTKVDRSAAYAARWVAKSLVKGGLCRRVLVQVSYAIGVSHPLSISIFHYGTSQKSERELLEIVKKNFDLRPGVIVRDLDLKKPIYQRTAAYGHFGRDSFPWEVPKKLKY

IC50 (MAT2A) [nM] | IC50 (KP-4 cells; Homo sapiens, 120 h) [nM] | Structure (SMILES) | IC50 (KP-4 cells) [nM]
16 | 19.5 | Cn1cc2cc(-n3c(=O)c(-c4ccc(C5CC5)nc4)c(OCC(F)(F)F)c4cn[nH]c43)ccc2n1 [Compound 53] | –
10.5 | 89.1 | CCOc1c(-c2ccc(OC(F)F)cc2)c(=O)n(-c2ccc3nn(C)cc3c2)c2nn(C)cc12 [Compound 45] | –
17.3 | 66.7 | Cn1cc2cc(-n3c(=O)c(-c4ccc(C(F)(F)F)nc4)c(NCC4CC4)c4cn[nH]c43)ccc2n1 [Compound 108] | –
20.7 | 25 | CCOc1c(-c2ccc(Cl)cc2)c(=O)n(-c2ccc3nn(C)cc3n2)c2[nH]ncc12 [Compound 84] | –
14.9 | 41.5 | CCOc1c(-c2ccc(Cl)cc2)c(=O)n(-c2ccc3ncn(C)c3c2)c2[nH]ncc12 [Compound 33] | –
17 | 39.2 | Cn1cnc2ccc(-n3c(=O)c(-c4ccc(Cl)cc4)c(OCC(F)(F)F)c4cn[nH]c43)cc21 [Compound 36] | –
17.6 | 32 | Cn1cc2nc(-n3c(=O)c(-c4ccc(Cl)cc4)c(OCC4CC4)c4cn[nH]c43)ccc2n1 [Compound 96] | –
12.7 | 11.4 | CCOc1c(-c2ccc(OC(F)F)cc2)c(=O)n(-c2ccc3nn(C)cc3n2)c2[nH]ncc12 [Compound 41] | –
– | 89.2 | CCOc1c(-c2ccc(OC(F)F)cc2)c(=O)n(-c2ccn3nccc3c2)c2[nH]ncc12 [Compound 23] | –
16.8 | 427 | CCOc1c(-c2ccc(Cl)cc2)c(=O)n(-c2ccc3nn(C)nc3n2)c2[nH]ncc12 [Compound 137] | –
35.3 | > 10000 | CCNc1c(-c2ccc(OC)cc2)c(=O)n(-c2ccc(=O)n(C)c2)c2[nH]ncc12 [Compound 7] | –
17.5 | 70.8 | CCNc1c(-c2ccc(OC)cc2)c(=O)n(-c2ccc3nn(C)cc3c2)c2[nH]ncc12 [Compound 2] | –
11.7 | 3.7 | Cn1cc2cc(-n3c(=O)c(-c4ccc(Cl)cc4)c(NCC4CC4)c4cn[nH]c43)ccc2n1 [Compound 123] | –
23.2 | 128 | CCOc1c(-c2ccc(Cl)cc2)c(=O)n(-c2ccc3nn(C)cc3n2)c2nn(C)cc12 [Compound 109] | –
15.3 | 60.9 | CCOc1c(-c2ccc(C(F)(F)F)nc2)c(=O)n(-c2ccc3nn(C)cc3c2)c2[nH]ncc12 [Compound 46] | –
16.1 | 87.8 | Cn1cc2nc(-n3c(=O)c(-c4ccc(Cl)cc4)c(OCC(F)(F)F)c4cn[nH]c43)ccc2n1 [Compound 99] | –
14.8 | 3.5 | CCCOc1c(-c2ccc(Cl)nc2)c(=O)n(-c2ccc3nn(C)cc3c2)c2[nH]ncc12 [Compound 58] | –
16.7 | 73.2 | Cn1cc2nc(-n3c(=O)c(-c4ccc(Cl)cc4)c(NCC4CC4)c4cn[nH]c43)ccc2n1 [Compound 107] | –
– | 274 | CCOc1c(-c2ccc(OC(F)F)cc2)c(=O)n(-c2ccc3ncnn3c2)c2[nH]ncc12 [Compound 25] | –
16.7 | 146 | CCOc1c(-c2ccc(Cl)cc2)c(=O)n(C2=NC3C(C=C2)N=NN3C)c2[nH]ncc12 (stereo not shown) [Compound 141] | –
17.7 | 28 | COc1ccc(-c2c(NCC3CC3)c3cn[nH]c3n(-c3ccc4nn(C)cc4n3)c2=O)cc1 [Compound 5] | –

IC50 (MAT2A) [nM] | IC50 (KP-4 cells; Homo sapiens, 120 h) [nM] | Structure (SMILES) | IC50 (KP-4 cells) [nM]
12.1 | 11.7 | COc1ccc(-c2c(OCC(F)(F)F)c3cn[nH]c3n(-c3ccc4nn(C)cc4c3)c2=O)cc1 [Compound 12] | –
18.6 | 149 | CCOc1c(-c2ccc(OC(F)F)cc2)c(=O)n(-c2ccc3nn(C4CNC4)cc3c2)c2[nH]ncc12 [Compound 38] | –
15.7 | 35.7 | Cn1cc2cc(-n3c(=O)c(-c4ccc(F)cc4)c(OCC4CC4)c4cn[nH]c43)ccc2n1 [Compound 51] | –
16.5 | 160 | CCOc1c(-c2ccc(Cl)cc2)c(=O)n(-c2ccc3nn(CCN(C)C)cc3n2)c2[nH]ncc12 [Compound 132] | –
18.2 | 2.4 | Cn1cc2cc(-n3c(=O)c(-c4ccc(Cl)cc4)c(NCC(F)(F)F)c4cn[nH]c43)ccc2n1 [Compound 63] | –
8.6 | 1.2 | CCOc1c(-c2ccc(Cl)cc2)c(=O)n(-c2ccc3nnn(C)c3c2)c2[nH]ncc12 [Compound 128] | –
17.5 | 62.8 | CCOc1c(-c2ccc(Cl)cc2)c(=O)n(-c2ccc3nn(CCN(C)C)cc3c2)c2[nH]ncc12 [Compound 111] | –
16.2 | 1.5 | O=c1c(-c2ccc(Cl)cc2)c(OCC(F)(F)F)c2cn[nH]c2n1-c1ccc2nn(C3COC3)cc2c1 [Compound 93] | –
14.2 | 4.9 | CCNc1c(-c2ccc(Cl)cc2)c(=O)n(-c2ccc3nn(C)cc3c2)c2[nH]ncc12 [Compound 11] | –
17.6 | 9 | Cc1ccc(-c2c(OCC(F)(F)F)c3cn[nH]c3n(-c3ccc4nn(C)cc4c3)c2=O)cn1 [Compound 52] | –
15 | 5.2 | Cn1cc2cc(-n3c(=O)c(-c4ccc(Cl)cc4)c(OCC(F)(F)F)c4cn[nH]c43)ccc2n1 [Compound 28] | –
17.1 | 6.8 | Cn1cc2cc(-n3c(=O)c(-c4ccc(OC(F)F)cc4)c(OCC(F)(F)F)c4cn[nH]c43)ccc2n1 [Compound 27] | –
– | 18.9 | CCOc1c(-c2ccc(OC(F)F)cc2)c(=O)n(-c2ccc3nn(CCOC)cc3c2)c2[nH]ncc12 [Compound 21] | –
60.8 | – | CCOc1c(-c2ccc(Cl)cc2)c(=O)n(-c2ccc3ncn(C4CNC4)c3c2)c2[nH]ncc12 [Compound 35] | –
14.2 | – | CCOc1c(C2CCCCC2)c(=O)n(-c2ccc3nn(C)cc3c2)c2[nH]ncc12 [Compound 61] | –
18.5 | – | CCN(C)c1c(-c2ccc(Cl)cc2)c(=O)n(-c2ccc3nn(C)cc3c2)c2[nH]ncc12 [Compound 64] | –
28.3 | – | CCOc1c(-c2ccc(C(F)(F)F)nc2)c(=O)n(-c2ccc3nn(C)cc3n2)c2[nH]ncc12 [Compound 87] | –
1120 | – | CCOc1c(-c2ccc(Cl)cc2)c(=O)n(-c2ccc3nn(C)cc3n2)c2c1cnn2C [Compound 121] | –
17.8 | – | CCOc1c(-c2ccc(Cl)cc2)c(=O)n(-c2ccc3nn(C)cc3c2)c2[nH]cnc12 [Compound 67] | –
– | 256 | CCOc1c(-c2ccc(OC(F)F)cc2)c(=O)n(-c2ccc3nccn3c2)c2[nH]ncc12 [Compound 24] | –

Structure (SMILES) | IC50 (MAT2A) [nM] | IC50 (KP-4 cells; Homo sapiens, 120 h) [nM] | IC50 (KP-4 cells) [nM]
CCOc1c(-c2ccc(OC(F)F)cc2)c(=O)n(-c2ccc3ncn(C)c3c2)c2[nH]ncc12 [Compound 22] | 16 | – | 28.1
CCOc1c(-c2ccc(OC(F)F)cc2)c(=O)n(-c2ccc3nn(CCO)cc3c2)c2[nH]ncc12 [Compound 20] | 9.8 | – | 224
